We go through four molecules from article PMC7796460, “Relation of Metal-Binding Property and Selective Toxicity of 8-Hydroxyquinoline Derived Mannich Bases Targeting Multidrug Resistant Cancer Cells” (Cancers, 2021).

One series relates to NCI-ADRres cells. The series is described as follows: MTT viability assay, NCI-ADRres. In kind it is cell-based. Particulars: for IC50: Homo sapiens, NCI/ADR-RES, 72 h, MTT 72 h; for SR NCI-ADRres: IC50 OVCAR-8 vs. NCI-ADRres. The text has this:
(§1) MDCK II canine kidney cells, A431 epidermoid carcinoma cells, the human uterine sarcoma cell lines MES-SA and the doxorubicin selected MES-SA-Dx5 were obtained from ATCC (MDCK II: No. CRL-2936™, A431: No. CRL-1555™, MES-SA: No. CRL-1976™, MES-SA/Dx5: No. CRL-1977™). ABCB1 was expressed in A431 and MES-SA cells using lentiviral transduction. The human cervix carcinoma cell line KB-3-1 and the vinblastine selected KB-v1were kind gifts from Dr. Michael M. Gottesman, National Institutes of Health. The phenotype of the resistant cells was verified using cytotoxicity assays. MDCK-B1 and MDCK-MM were established by the Sleeping Beauty transposon-based gene delivery system. OVCAR-8 and NCI-ADRres cells (obtained from the Division of Cancer Treatment and Diagnosis (DCTD) Tumor Repository (National Cancer Institute, Frederick, MD, USA)) were cultivated in RPMI-1640 (Sigma Aldrich, Budapest, Hungary), and other cell lines were cultivated in Dulbecco’s Modified Eagle Medium (DMEM, Sigma Aldrich, Budapest, Hungary), supplemented with 10% fetal bovine serum, 5 mM glutamine, and 50 unit/mL penicillin and streptomycin (Life Technologies, Carlsbad, CA, USA). All cell lines were cultivated at 37 °C, 5% CO2.
(§2) MTT viability assays were performed as described earlier with minor modifications. Briefly, cells were seeded into 96-well tissue culture plates (Sarstedt, Newton, NC, USA/Orange, Braine-l’Alleud, Belgium) at a density of 5000 cells/well and allowed to attach overnight. Test compounds were added to achieve the required final concentration in a final volume of 100 µL per well. After an incubation period of 72 h, the supernatant was removed and fresh medium containing the MTT reagent (0.083 mg/mL) was added. Incubation with MTT at 37 °C was terminated after 1 h by removing the supernatant and lysing the cells with 100 µL DMSO per well. Viability of the cells was measured spectrophotometrically based on the absorbance values at 540 nm using either a Perkin Elmer Victor X3 or an EnSpire microplate reader. Data were background corrected by subtraction of the signal obtained from unstained cell lysates and normalized to untreated cells. Curves were fitted by Prism software (GraphPad Software Inc., San Diego, CA, USA) using the sigmoidal dose-response model (comparing variable and fixed slopes). […] Significance was calculated using unpaired t-tests; results are given as *: p ≤ 0.05, **: p ≤ 0.01, ***: p ≤ 0.001, ****: p ≤ 0.0001.
(Formazan colour is commonly taken as a measure of viable cells.)

A further series concerns KB-3-1 cells. The series is described as follows: MTT viability assay, KB-3-1. Type of series: cell-based. Particulars: Homo sapiens, KB 3-1, 72 h, MTT 72 h.
Description: as §1, §2

The next series concerns MDCK-MM cells. The series is described as follows: MTT viability assay, MDCK-MM (non-functional Pgp). In kind it is cell-based, canine. Particulars: for IC50: Canis lupus familiaris, 72 h, MTT 72 h; for SR MDCK-MM: IC50 MDCK vs. MDCK-MM.
Description: as §1, §2

The subject of series [1] is MES-SA, MES-SA/Dx5 and MES-SA/B1 cells. The series is described as follows: TXRF intracellular copper levels. As to conditions: for Intracellular copper levels: 1 µM ligand with 5 µM CuCl2, 4 h (Figure 4B). In kind it is cell-based, human. The method, then: Cells were seeded to 6-well plates in a density of 1.5 Mio cells/well and allowed to attach overnight. Following a washing step with phosphate buffered saline (PBS), cells were incubated in serum free DMEM. For the iron-level measurements, cells were preloaded with 25 µM holo-transferrin for 4 h and, after a washing step with serum free DMEM, cells were incubated with 5 µM of each ligand for 8 h. For the detection of copper levels, cells were treated with 1 µM of the ligands in the presence of 5 µM CuCl2 for 4 h. Following incubation, cells were harvested upon trypsination, washed twice with PBS, counted and the resulting pellets were digested in 20 μL of 30% H2O2, 80 μL of 65% HNO3. 10 μL of 15 µg/mL Ga(NO3)3 (in nitric acid) was added as an internal standard upon digestion for 24 h at room temperature. From the resulting solutions, 2 μL were pipetted on the quartz reflectors used for total-reflection X-ray fluorescence (TXRF) analysis. For the determination of the intracellular Cu content, the TXRF method was used as previously reported. Briefly, all determinations were performed on an Atomika 8030C TXRF spectrometer (Atomika Instruments GmbH, Oberschleissheim, Germany). The stock solution of 1000 mg/L Ga was purchased from Merck (Darmstadt, Germany). The Kα line used for determination of Fe and Cu were at 6.403 and 8.047 keV. […] Significance was calculated using unpaired t-tests; results are given as *: p ≤ 0.05, **: p ≤ 0.01, ***: p ≤ 0.001, ****: p ≤ 0.0001.
Figure 4 Effect of the compounds on intracellular metal levels. (A) Iron levels of MES-SA (open columns) and MES-SA/B1 cells in absence (dark red squared columns) and presence of Pgp inhibitor Tariquidar (bright red squared columns). Cells were loaded with 25 µM holo-transferrin (4 h), followed by an incubation (8 h) without (ctr) or with 5 µM of ligands Q-1, Q-2, Q-3, and Q-4. […] (B) Cellular copper levels measured following a 4 h co-administration of compounds Q-1, Q-2, Q-3, and Q-4 (1 µM) and CuCl2 (5 µM) in MES-SA (open columns), MES-SA/Dx5 (filled columns) and MES-SA-B1 (squared columns) cells. Significance is given as *: p ≤ 0.05, **: p ≤ 0.01, ***: p ≤ 0.001.

On the set-up of series [2]: method as in PMID 21275772. Particulars: T = 25 °C, I = 0.2 M (KCl), cited from earlier work; for pKa (additional): group named in the cell.
[3] abbreviates: presence of 1 µM Tariquidar (values in brackets).
[4] abbreviates: presence of 1 µM Tariquidar (brackets).

SMILES strings stand for the structures. Marks after values point to notes of the source that are not given here. Bounds are passed on as bounds.

`Oc1cccc2cccnc12` [Compound Q-1, 8-Hydroxyquinoline]: the IC50 with NCI-ADRres cells (absence of Tariquidar) was 1.84 ± 0.3 µM; in the series on NCI-ADRres cells (setting [3]), 2.65 µM; in the series on KB-3-1 cells (absence of Tariquidar), 8.59 ± 2.92 µM; with KB-3-1 cells (setting [3]), 10.9 µM; in the series on MDCK-MM cells (absence of Tariquidar), 3.34 ± 0.6 µM; with MDCK-MM cells (setting [3]), 3.59 µM. Also, the figures for the “SR NCI-ADRres” value in the series on NCI-ADRres cells (absence of Tariquidar) and in the series with NCI-ADRres cells (setting [4]) were 1.88 and 1.29, respectively. Moreover, the results for the “SR MDCK-MM” value with MDCK-MM cells (absence of Tariquidar) and with MDCK-MM cells (setting [4]) were 0.97 and 0.86, respectively. For the same molecule, the Intracellular copper levels result in series [1] is on record as “significantly increased copper levels”. Moreover, the “pKa (NquinoliniumH+)” value in series [2] was 4.99 ^a. The “pKa (OH)” value in series [2] is 9.51 ^a.

As for `Oc1c(CN2CCOCC2)ccc2cccnc12` [Compound Q-2, 7-(morpho-lino-methyl)quinolin-8-ol], the IC50 is 2.84 ± 0.81 µM in the series on NCI-ADRres cells (absence of Tariquidar); 5.41 µM with NCI-ADRres cells (setting [3]); 9.55 ± 2.55 µM in the series on KB-3-1 cells (absence of Tariquidar); 11.7 µM with KB-3-1 cells (setting [3]); 9.74 ± 4.04 µM in the series with MDCK-MM cells (absence of Tariquidar); 9.01 µM in the series with MDCK-MM cells (setting [3]). Further, the “SR NCI-ADRres” value with NCI-ADRres cells (absence of Tariquidar) is 1.11; in the series on NCI-ADRres cells (setting [4]), 0.61. For the same molecule, the figures for the “SR MDCK-MM” value with MDCK-MM cells (absence of Tariquidar) and with MDCK-MM cells (setting [4]) were 0.82 and 1.23, respectively. For the same molecule, the Intracellular copper levels result in series [1] is on record as “significantly increased copper levels”. Besides, in series [2], the “pKa (NquinoliniumH+)” value is reported as 2.59 ^a. Further, in series [2], the “pKa (OH)” value is listed as 10.37 ^a. For the same molecule, in series [2], the “pKa (additional)” value is reported as 6.25 ^a (NmorpholiniumH^+).

As to `Oc1c(CN2CCCCC2)ccc2cccnc12` [Compound Q-3, 7-(piperidin-1-ylmethyl)quinolin-8-ol], the IC50 is 0.68 ± 0.09 µM with NCI-ADRres cells (absence of Tariquidar); 4.22 µM with NCI-ADRres cells (setting [3]); 6.19 ± 0.12 µM with KB-3-1 cells (absence of Tariquidar); 6.69 µM in the series with KB-3-1 cells (setting [3]); 6.67 ± 2 µM in the series with MDCK-MM cells (absence of Tariquidar); 8.45 µM with MDCK-MM cells (setting [3]). Further, the “SR NCI-ADRres” value was determined as 4.60 with NCI-ADRres cells (absence of Tariquidar) and 0.88 in the series with NCI-ADRres cells (setting [4]). Moreover, the “SR MDCK-MM” value is 1.14 in the series on MDCK-MM cells (absence of Tariquidar) and 1.20 in the series on MDCK-MM cells (setting [4]). The “Increase in copper uptake” value in series [1] (1 µM ligand with 5 µM CuCl2, 4 h) is listed as 10 fold. In addition, the “pKa (NquinoliniumH+)” value in series [2] was 2.69 ^a. In addition, the “pKa (OH)” value in series [2] is given as 6.99 ^a. The “pKa (additional)” value in series [2] is listed as >11.5 ^a.

Turning to `Oc1c(CNCc2ccccc2F)cc(Cl)c2cccnc12` [Compound Q-4, 5-chloro-7-((2-fluorobenzylamino)methyl)quinolin-8-ol], the IC50 in the series with NCI-ADRres cells (absence of Tariquidar) is 0.14 ± 0.07 µM; in the series on NCI-ADRres cells (setting [3]), 1.15 µM; in the series on KB-3-1 cells (absence of Tariquidar), 1.75 ± 0.62 µM; in the series with KB-3-1 cells (setting [3]), 2.65 µM; in the series on MDCK-MM cells (absence of Tariquidar), 5.23 ± 2.11 µM; with MDCK-MM cells (setting [3]), 6.27 µM. Further, the “SR NCI-ADRres” value in the series on NCI-ADRres cells (absence of Tariquidar) is 7.84. Further, the results for the “SR MDCK-MM” value with MDCK-MM cells (absence of Tariquidar) and in the series with MDCK-MM cells (setting [4]) were 0.87 and 0.94, respectively. Moreover, the Intracellular copper levels entry in series [1] was “significantly increased copper levels”. Besides, the “pKa (NquinoliniumH+)” value in series [2] is on record as < 2 ^a. Also, the “pKa (OH)” value in series [2] is reported as 5.16 ^a. Besides, the “pKa (additional)” value in series [2] is listed as 8.54 ^a (NbenzylamineH2^+).
